Assays:
Type in all cases: in vivo
[1] = system: Female seabream (Sparus aurata); experiment: Spawning activity of treated females kept with two males (Example 1); conditions: spawning activity = tens of thousands of fertilized eggs per day over more than one week
Procedure: (§1) Female seabream (Sparus aurata) reaching final stages of vitellogenesis received one of the following treatment of GnRHa - an analog of mammalian GNRH ([D-Ala^6 -Pro^9 -NET]-LHRH):
(§2) 1. An intramuscular injection of GnRHa in a saline solution (10 μg GnRHa/kg body weight which is an acceptable amount for injection);
(§3) 2. Implantation of a Silastic implant (Sila.) according to Crim et al., 1986, containing GnRHa (150 μg GnRHa/fish);
(§4) 3. Implantation of a biodegradable copolymer of polylacticpolyglycolic acid (Z. implant) containing GnRHa (150 μg GnRHa/fish);
(§5) 4. Placebo injection of saline (Control).
Additionally, several treated, non-bled females from each treatment group were kept, each in a separate container, which was connected to an egg collector, together with two males. The females were followed for their spawning activity, which was defined in this experiment as tens of thousands of fertilized eggs collected per day over a period of more than one week.

[2] = system: females of rainbow trout, Salmo gaixdneri; experiment: Blood GtH levels after hormone administration (Example 4)
Procedure: (§6) 24 females of rainbow trout, Salmo gaixdneri, were divided into four groups, six fish in each group. Each group received one of the following treatments:
(§7) 1. Injection of the mammalian GnRHa as in Example 1 ([…] body weight), in saline;
(§8) 2. Administration of a biodegradable copolymer of polylactic-polyglycolic acid containing the same GnRHa (150 mg/fish 150 μg/fish) in pellets, implanted under the fish's skin;
(§9) 3. Ethylene vinyl acetate copolymer pellets containing a fish GnRH analog (GNRHH) - [D-Arg^6 -Pro^9 -NET]sGnRH (150 mg/fish 150 μg/fish),implanted under the skin;
All fish were bled before and at different intervals after hormone administration, for the determination of blood GtH levels, similarly as in Example 1.

[3] = system: females of rainbow trout, Salmo gaixdneri; experiment: Occurrence of ovulation monitored by ovarian biopsy (Example 4)
Procedure: as §6, §7, §8, §9
An additional four groups of 20 females in each group, undergoing advanced stages of vitellogenesis, were treated as above and used for monitoring the state of ovarian development and the occurrence of ovulation. An overian biopsy was sampled from these females every 2 to 4 days for 30 days post-treatment.

[4] = system: Female seabream (Sparus aurata); experiment: Plasma GtH levels by specific homologous radioimmunoassay after GnRHa administration (Example 1); conditions: FIG. 1
Procedure: as §1, §2, §3, §4, §5
Before the treatment and at various intervals thereafter, the fish were bled. After withdrawing a blood sample the fish were returned into the water. GtH levels were determined in the withdrawn blood sample by specific homologous radioimmunoassay. The results are shown in FIG. 1 of the annexed drawings.

[D-Ala^6 -Pro^9 -NET]-LHRH [Group 1]
percentage of the females showing spawning activity [1]: 25% | period of GtH level surge in plasma [2]: about 48 hrs. | degree of ovulation (in percent of ovulated females) ([3]; 6 days post treatment): 30% | degree of ovulation (in percent of ovulated females) ([3]; 9 days post treatment): 40% | degree of ovulation (in percent of ovulated females) ([3]; 30 days post treatment): 60% | acceleration / synchronization of ovulation ([3]; versus control group): did not accelerate or synchronize ovulation | plasma GtH level / GtH release [4]: decreased rapidly
